# Laboratory results reported in ChEMBL document CHEMBL1821683, “Synthesis of rhodamine B-benzenesulfonamide conjugates and their inhibitory activity against human α- and bacterial/fungal β-carbonic anhydrases” (Bioorg Med Chem Lett, 2011).
# What was measured:
# Carbonic anhydrase 12 = Carbonic anhydrase 12 (Homo sapiens, UniProt O43570); experiment: Inhibition of human carbonic anhydrase 12 preincubated for 15 mins at pH 7.5 by stopped flow CO2 hydration method
# Carbonic anhydrase 7 = Carbonic anhydrase 7 (Homo sapiens, UniProt P43166)
# Sequence of Carbonic anhydrase 7 (P43166 whole entry): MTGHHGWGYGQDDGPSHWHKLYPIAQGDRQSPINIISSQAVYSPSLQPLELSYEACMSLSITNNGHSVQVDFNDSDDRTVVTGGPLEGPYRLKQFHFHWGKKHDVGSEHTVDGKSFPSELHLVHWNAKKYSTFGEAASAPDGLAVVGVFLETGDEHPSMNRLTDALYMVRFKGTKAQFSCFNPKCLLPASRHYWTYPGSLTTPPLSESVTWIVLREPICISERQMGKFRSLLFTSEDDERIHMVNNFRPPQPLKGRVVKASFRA
# Carbonic anhydrase 1 = Carbonic anhydrase 1 (Homo sapiens, UniProt P00915)
# Sequence of Carbonic anhydrase 1 (P00915 whole entry): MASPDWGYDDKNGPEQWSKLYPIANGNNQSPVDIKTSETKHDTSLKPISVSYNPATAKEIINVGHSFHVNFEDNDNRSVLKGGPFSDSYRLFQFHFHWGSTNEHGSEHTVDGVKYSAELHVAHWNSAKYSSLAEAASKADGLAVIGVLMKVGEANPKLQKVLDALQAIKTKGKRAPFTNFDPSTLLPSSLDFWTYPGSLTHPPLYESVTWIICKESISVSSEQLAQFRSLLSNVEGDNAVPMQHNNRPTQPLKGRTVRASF
# Carbonic anhydrase = molecular target: T1, Carbonic anhydrase (Candida albicans (strain SC5314 / ATCC MYA-2876) (Yeast), UniProt Q5AJ71)
# T1 sequence (Q5AJ71 whole entry): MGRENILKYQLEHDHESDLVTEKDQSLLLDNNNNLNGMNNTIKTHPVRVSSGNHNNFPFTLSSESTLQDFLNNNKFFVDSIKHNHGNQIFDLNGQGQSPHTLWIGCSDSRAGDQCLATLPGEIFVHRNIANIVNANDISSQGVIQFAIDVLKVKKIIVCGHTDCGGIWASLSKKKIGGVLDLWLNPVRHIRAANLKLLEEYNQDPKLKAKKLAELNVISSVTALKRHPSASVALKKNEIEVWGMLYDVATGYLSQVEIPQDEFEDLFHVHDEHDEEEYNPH
# Carbonic anhydrase 2 = Carbonic anhydrase 2 (Homo sapiens, UniProt P00918); experiment: Inhibition of human carbonic anhydrase 2 preincubated for 15 mins at pH 7.5 by stopped flow CO2 hydration method
# Carbonic anhydrase 9 = Carbonic anhydrase 9 (Homo sapiens, UniProt Q16790)
# Sequence of Carbonic anhydrase 12 (O43570 whole entry): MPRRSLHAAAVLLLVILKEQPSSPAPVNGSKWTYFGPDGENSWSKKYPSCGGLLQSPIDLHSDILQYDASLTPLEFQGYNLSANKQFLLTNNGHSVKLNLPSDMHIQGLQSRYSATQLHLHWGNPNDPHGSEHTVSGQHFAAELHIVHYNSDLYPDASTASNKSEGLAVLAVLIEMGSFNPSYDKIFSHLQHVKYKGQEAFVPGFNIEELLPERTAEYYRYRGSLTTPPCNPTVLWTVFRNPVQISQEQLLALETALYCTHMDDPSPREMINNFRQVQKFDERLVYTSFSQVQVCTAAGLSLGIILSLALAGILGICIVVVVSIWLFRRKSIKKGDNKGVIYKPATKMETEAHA
Structure (SMILES),Ki (Carbonic anhydrase 12),Ki (Carbonic anhydrase 7),Ki (Carbonic anhydrase 1),Ki (Carbonic anhydrase),Ki (Carbonic anhydrase 2),Ki (Carbonic anhydrase 9)
CCN(CC)c1ccc2c(c1)Oc1cc(N(CC)CC)ccc1C21c2ccccc2C(=O)N1c1ccc(S(N)(=O)=O)cc1,0.0091 µM,0.0602 µM,0.512 µM,4.99 µM,0.279 µM,
CCN(CC)c1ccc2c(c1)Oc1cc(N(CC)CC)ccc1C21c2ccccc2C(=O)N1c1cccc(S(N)(=O)=O)c1,0.0105 µM,0.0121 µM,0.311 µM,4.1 µM,0.0215 µM,0.024 µM
CCN(CC)c1ccc2c(c1)Oc1cc(N(CC)CC)ccc1C21c2ccccc2C(=O)N1CCc1ccc(S(N)(=O)=O)cc1,0.0253 µM,0.0917 µM,0.692 µM,4.73 µM,0.955 µM,0.0194 µM
CCN(CC)c1ccc2c(c1)Oc1cc(N(CC)CC)ccc1C21c2ccccc2C(=O)N1Cc1ccc(S(N)(=O)=O)cc1,0.0086 µM,0.0349 µM,0.714 µM,5.32 µM,0.98 µM,0.0102 µM
